Tests used:
[1] = system: IL-17A-induced G-CSF production in human normal keratinocyte (NHK); assay: NHK assay: IL-17A-induced G-CSF production in normal human keratinocytes; type: cell-based; conditions: 24 h, IL-17A 5 ng/mL, G-CSF by HTRF, average if tested more than once
Method in brief: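 Compound titrations are first mixed with recombinant human IL-17A for 1 h at room temperature. The mixture goes onto adult normal human keratinocytes (final IL-17A 5 ng/mL, 5% FBS, 0.2% DMSO) for 24 h at 37 °C. Secreted G-CSF is then measured by HTRF and IC50 fitted.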

[2] = target: IL-17A(FLAG-Tagged): IL-17RA(His-Tagged) binding (Homo sapiens, UniProt Q16552, K93Q); assay: IL-17A(FLAG-tagged):IL-17RA(His-tagged) binding disruption Eu-HTRF assay, Protocol 1; conditions: FLAG-IL-17A 2.5 nM; average if tested more than once
Chain of UniProt Q16552 (Q16552 with tags, fused parts or gaps K93Q): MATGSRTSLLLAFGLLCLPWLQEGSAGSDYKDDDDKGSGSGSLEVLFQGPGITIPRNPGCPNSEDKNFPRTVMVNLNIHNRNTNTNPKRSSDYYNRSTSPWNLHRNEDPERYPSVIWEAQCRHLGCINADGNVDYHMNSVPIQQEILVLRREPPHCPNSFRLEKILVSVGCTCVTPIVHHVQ
Excerpt: IL-17A(FLAG-Tagged): IL-17RA(His-Tagged) Binding Disruption Eu-HTRF Assay
An antibody directed against the FLAG tag of IL-17A (SEQ ID NO: 1) is labeled with the HTRF donor chromophore (Europium-cryptate). IL-17A is present as a dimer that is “locked into” this quaternary structure due to the formation of loop-spanning […] disulfide bridges. The construct of IL-17RA used in the assay excludes the […] portion of the receptor and is fused to a C-terminal 10×His tag (SEQ ID NO:2). An antibody directed against the His tag of the IL-17RA chimera is labeled with the HTRF acceptor chromophore (“D2”). The fluorescence-resonance energy transfer (FRET) depends on the vicinity of the donor chromophore to the acceptor, and interruption of the binding between the IL-17A and IL-17RA causes the reduction/loss of FRET. Therefore, this assay allows to evaluate the compound effect on the binding IL-17A and IL-17RA by monitoring the fluorescence intensity of donor vs acceptor. The assay was run using either Protocol 1 or Protocol 2 as described below.
Protocol 1. 40 nl of 2-fold serial diluted compound solution for total 22 dilution points is added into each well of a 1536-well, white, low-volume, non-binding plate (Greiner #782904), then 2 μl of FLAG tagged IL-17A at 2×final concentration (2.5 nM) in solution of PBS+0.01% Triton-X100 is added to each well. The assay plate is briefly centrifuged then incubated for 1 h at rt. A mixed solution is prepared containing 2×5 nM 10HIS×IL-17RA, 2×2.5 nM Eu-anti-FLAG (CISBIO), 2×5 nM D2-anti-HIS (CISBIO) in PBS+0.01% Triton-X100+200 mM Potassium Fluoride (Sigma 60238) and 2 μl of mix is added to each well of the assay plate. The plate is briefly centrifuged then incubated for 2 h at rt. The HTRF intensities at the wavelength of donor (620 nm) and acceptor (665 nm) are measured using BMG Pherastar. The ratio between intensities at two wavelengths is calculated and plotted against the compound concentration and the data is fitted to a one-site competition model to yield IC50 of the compound.

Row | IC50 [2] [nM] | SMILES | IC50 ([1]; Homo sapiens, Keratinocyte) [nM] | IC50 [1] [nM]
1 | > 100 | CC(C)n1nccc1C(=O)N[C@H](c1cn2ncc(CN3CCCNC3=O)cc2n1)C1CCC(F)(F)CC1 [Example 19, (S)—N-((4,4-Difluorocyclohexyl)(7-((2-oxotetrahydropyrimidin-1(2H)-yl)methyl)imidazo[1,2-b]pyridazin-2-yl)methyl)-1-isopropyl-1H-pyrazole-5-carboxamide] | > 100 | 
2 | > 100 | CC1CNC(=O)N(Cc2cnn3cc([C@@H](NC(=O)c4nonc4C4CC4)C4CCC(F)(F)CC4)nc3c2)C1 (single isomer, unassigned) [Example 29, 4-Cyclopropyl-N—((S)-(4,4-difluorocyclohexyl)(7-(((R*)-5-methyl-2-oxotetrahydropyrimidin-1(2H)-yl)methyl)imidazo[1,2-b]pyridazin-2-yl)methyl)-1,2,5-oxadiazole-3-carboxamide] |  | > 100
3 | 50 to 100 | CC1(F)CNC(=O)N(Cc2cnn3cc([C@@H](NC(=O)c4nonc4C4CC4)C4CCC(F)(F)CC4)nc3c2)C1 (single isomer, unassigned) [Example 2, 4-Cyclopropyl-N—((S)-(4,4-difluorocyclohexyl)(7-(((S*)-5-fluoro-5-methyl-2-oxotetrahydropyrimidin-1(2H)-yl)methyl)imidazo[1,2-b]pyridazin-2-yl)methyl)-1,2,5-oxadiazole-3-carboxamide] |  | > 100
4 | > 100 | Cc1nonc1C(=O)N[C@H](c1cn2ncc(C(C)N3CC(F)(F)CNC3=O)cc2n1)C1CCC(F)(F)CC1 (single isomer, unassigned) [Example 93, N—((S)-(7-((S*)-1-(5,5-Difluoro-2-oxotetrahydropyrimidin-1(2H)-yl)ethyl)imidazo[1,2-b]pyridazin-2-yl)(4,4-difluorocyclohexyl)methyl)-4-methyl-1,2,5-oxadiazole-3-carboxamide] | > 100 | 
5 | < 50 | Cc1nonc1C(=O)N[C@H](c1cn2ncc([C@@H](C3CC3)N3CC(F)(F)CNC3=O)cc2n1)C1CCC(F)(F)CC1 [Example 8, N—((S)-(7-((R)-Cyclopropyl(5,5-difluoro-2-oxotetrahydropyrimidin-1(2H)-yl)methyl)imidazo[1,2-b]pyridazin-2-yl)(4,4-difluorocyclohexyl)methyl)-4-methyl-1,2,5-oxadiazole-3-carboxamide] | 50 to 100 | 
6 | < 50 | O=C(N[C@H](c1cn2ncc(CN3CC(F)(F)CNC3=O)cc2n1)C1CCC(F)(F)CC1)c1nonc1OCC(F)F [Example 26, (S)—N-((7-((5,5-Difluoro-2-oxotetrahydropyrimidin-1(2H)-yl)methyl)imidazo[1,2-b]pyridazin-2-yl)(4,4-difluorocyclohexyl)methyl)-4-(2,2-difluoroethoxy)-1,2,5-oxadiazole-3-carboxamide] | < 50 | 
7 | > 100 | CC(C)n1nccc1C(=O)N[C@H](c1cn2ncc(CN3CCCCNC3=O)cc2n1)C1CCC(F)(F)CC1 [Example 31, (S)—N-((4,4-Difluorocyclohexyl)(7-((2-oxo-1,3-diazepan-1-yl)methyl)imidazo[1,2-b]pyridazin-2-yl)methyl)-1-isopropyl-1H-pyrazole-5-carboxamide] | > 100 | 
8 | < 50 | O=C(N[C@H](c1cn2ncc(CN3CC(C(F)(F)F)CNC3=O)cc2n1)C1CCC(F)(F)CC1)c1nonc1C1CC1 (single isomer, unassigned) [Example 5, 4-Cyclopropyl-N—((S)-(4,4-difluorocyclohexyl)(7-(((S*)-2-oxo-5-(trifluoromethyl)tetrahydropyrimidin-1(2H)-yl)methyl)imidazo[1,2-b]pyridazin-2-yl)methyl)-1,2,5-oxadiazole-3-carboxamide] |  | 50 to 100
9 | > 100 | CC1CCCN(Cc2cnn3cc([C@@H](NC(=O)c4ccnn4C(C)C)C4CCC(F)(F)CC4)nc3c2)C(=O)N1 (single isomer, unassigned) [Example 94, N—((S)-(4,4-Difluorocyclohexyl)(7-(((R*)-4-methyl-2-oxo-1,3-diazepan-1-yl)methyl)imidazo[1,2-b]pyridazin-2-yl)methyl)-1-isopropyl-1H-pyrazole-5-carboxamide] | > 100 | 
10 | > 100 | O=C(N[C@H](c1cn2ncc(CN3CC(F)(F)CNC3=O)cc2n1)C1CCC(F)(F)CC1)c1cnn(CCC(F)(F)F)n1 [Example 27, (S)—N-((7-((5,5-Difluoro-2-oxotetrahydropyrimidin-1(2H)-yl)methyl)imidazo[1,2-b]pyridazin-2-yl)(4,4-difluorocyclohexyl)methyl)-2-(3,3,3-trifluoropropyl)-2H-1,2,3-triazole-4-carboxamide] | > 100 | 
11 | > 100 | O=C(N[C@H](c1cn2ncc(CN3CC(F)(F)CNC3=O)cc2n1)C1CCC(F)(F)CC1)c1cnn(CC2CC2)n1 [Example 24, (S)-2-(Cyclopropylmethyl)-N-((7-((5,5-difluoro-2-oxotetrahydropyrimidin-1(2H)-yl)methyl)imidazo[1,2-b]pyridazin-2-yl)(4,4-difluorocyclohexyl)methyl)-2H-1,2,3-triazole-4-carboxamide] | > 100 | 
12 | > 100 | CC(c1cnn2cc([C@@H](NC(=O)c3nonc3C3CC3)C3CCC(F)(F)CC3)nc2c1)N1CC(F)(F)CNC1=O (single isomer, unassigned) [Example 92, 4-Cyclopropyl-N—((S)-(7-((S*)-1-(5,5-difluoro-2-oxotetrahydropyrimidin-1(2H)-yl)ethyl)imidazo[1,2-b]pyridazin-2-yl)(4,4-difluorocyclohexyl)methyl)-1,2,5-oxadiazole-3-carboxamide] | > 100 | 
13 | 50 to 100 | CC(C)n1nccc1C(=O)N[C@H](c1cn2ncc([C@@H](C3CC3)N3CC(F)(F)CNC3=O)cc2n1)C1CCC(F)(F)CC1 [Example 10, N—((S)-(7-((R)-Cyclopropyl(5,5-difluoro-2-oxotetrahydropyrimidin-1(2H)-yl)methyl)imidazo[1,2-b]pyridazin-2-yl)(4,4-difluorocyclohexyl)methyl)-1-isopropyl-1H-pyrazole-5-carboxamide] | < 50 | 
14 | < 50 | COC[C@H](c1cnn2cc([C@@H](NC(=O)c3nonc3C)C3CCC(F)(F)CC3)nc2c1)N1CC(F)(F)CNC1=O [Example 12, N—((S)-(7-((S)-1-(5,5-Difluoro-2-oxotetrahydropyrimidin-1(2H)-yl)-2-methoxyethyl)imidazo[1,2-b]pyridazin-2-yl)(4,4-difluorocyclohexyl)methyl)-4-methyl-1,2,5-oxadiazole-3-carboxamide] | < 50 | 
15 | < 50 | CC1(F)CNC(=O)N(Cc2cnn3cc([C@@H](NC(=O)c4nonc4C4CC4)C4CCC(F)(F)CC4)nc3c2)C1 (single isomer, unassigned) [Example 1, 4-Cyclopropyl-N—((S)-(4,4-difluorocyclohexyl)(7-(((R*)-5-fluoro-5-methyl-2-oxotetrahydropyrimidin-1(2H)-yl)methyl)imidazo[1,2-b]pyridazin-2-yl)methyl)-1,2,5-oxadiazole-3-carboxamide] | > 100 | 
16 | 50 to 100 | COC[C@H](c1cnn2cc([C@@H](NC(=O)c3ccnn3C(C)C)C3CCC(F)(F)CC3)nc2c1)N1CC(F)(F)CNC1=O [Example 14, N—((S)-(7-((S)-1-(5,5-Difluoro-2-oxotetrahydropyrimidin-1(2H)-yl)-2-methoxyethyl)imidazo[1,2-b]pyridazin-2-yl)(4,4-difluorocyclohexyl)methyl)-1-isopropyl-1H-pyrazole-5-carboxamide] | < 50 | 

Reference: US12173007B2, “Imidazopyridazine IL-17 inhibitor compounds” (Janssen Pharmaceutica NV, priority 2021, dated 2024)
